# Measured values: publication PMC9181188 (International Journal of Molecular Sciences, 2022)
# Where two headings read alike, the source gives them in different places.
# Tests used:
# [1] = tested on: SW480 cells; test: MTT assay, SW480; format: cell-based, human; conditions: for IC50: Homo sapiens, SW480, 72 h, human primary colon cancer, 72 h, MTT, mean ± SD; for SI SW480: SI = IC50 for normal cell line (HaCaT)/IC50 cancer cell line
# [2] = tested on: SW620 cells; test: MTT assay, SW620; format: cell-based, human; conditions: for IC50: human metastatic colon cancer, 72 h, MTT, mean ± SD; for SI SW620: SI = IC50 for normal cell line (HaCaT)/IC50 cancer cell line
# [3] = tested on: PC3 cells; test: MTT assay, PC3; format: cell-based, human; conditions: for IC50: human metastatic prostate cancer, 72 h, MTT, mean ± SD; for SI PC3: SI = IC50 for normal cell line (HaCaT)/IC50 cancer cell line
# [4] = tested on: HaCaT cells; test: MTT assay, HaCaT normal cells; format: cell-based; conditions: human immortal keratinocyte cell line, 72 h, mean ± SD
# [5] = tested on: S. aureus NCTC 4163; test: MIC, twofold microdilution, standard strain; format: cell-based; conditions: Staphylococcus aureus, NCTC4163; 18 h of treatment; read-out: MIC S. aureus NCTC 4163
# [6] = tested on: S. aureus ATCC 25923; test: MIC, twofold microdilution, standard strain; format: cell-based; conditions: Staphylococcus aureus, ATCC25923; 18 h of treatment; read-out: MIC S. aureus ATCC 25923
# [7] = tested on: S. aureus ATCC 6538; test: MIC, twofold microdilution, standard strain; format: cell-based; conditions: Staphylococcus aureus, ATCC6538; 18 h of treatment; read-out: MIC S. aureus ATCC 6538
# [8] = tested on: S. aureus ATCC 29213; test: MIC, twofold microdilution, standard strain; format: cell-based; conditions: Staphylococcus aureus, ATCC29213; 18 h of treatment; read-out: MIC S. aureus ATCC 29213
# [9] = tested on: S. epidermidis ATCC 12228; test: MIC, twofold microdilution, standard strain; format: cell-based; conditions: Staphylococcus epidermidis, ATCC12228; 18 h of treatment; read-out: MIC S. epidermidis ATCC 12228
# [10] = tested on: S. epidermidis ATCC 35984; test: MIC, twofold microdilution, standard strain; format: cell-based; conditions: Staphylococcus epidermidis, ATCC35984; 18 h of treatment; read-out: MIC S. epidermidis ATCC 35984
# [11] = tested on: E. coli ATCC 25922; test: MIC, twofold microdilution, standard strain; format: cell-based, Escherichia coli; conditions: Escherichia coli, read-out: MIC E. coli ATCC 25922
# [12] = tested on: P. aeruginosa ATCC 27853; test: MIC, twofold microdilution, standard strain; format: cell-based; conditions: Pseudomonas aeruginosa, ATCC27853; 18 h of treatment; read-out: MIC P. aeruginosa ATCC 27853
# [13] = tested on: S. epidermidis KR 4047 825/19; test: MIC, clinical S. epidermidis strain; format: cell-based; conditions: Staphylococcus epidermidis, KR4047825/19, quinolone-resistant, 18 h of treatment
# [14] = tested on: S. epidermidis KR 4243 829/19; test: MIC, clinical S. epidermidis strain; format: cell-based; conditions: Staphylococcus epidermidis, KR4243829/19, quinolone-susceptible, 18 h of treatment
# [15] = tested on: S. epidermidis KR 4313 834/19; test: MIC, clinical S. epidermidis strain; format: cell-based; conditions: Staphylococcus epidermidis, KR4313834/19, quinolone-susceptible, 18 h of treatment
# [16] = tested on: S. epidermidis KR 4358/2 840/19; test: MIC, clinical S. epidermidis strain; format: cell-based; conditions: Staphylococcus epidermidis, KR4358/2840/19; clinical S. epidermidis, quinolone-susceptible, 18 h of treatment; read-out: MIC KR 4358/2 840/19
# [17] = tested on: S. epidermidis T 5253 845/19; test: MIC, clinical S. epidermidis strain; format: cell-based; conditions: Staphylococcus epidermidis, T5253845/19, quinolone-resistant, 18 h of treatment
# [18] = tested on: S. epidermidis T 5399 848/19; test: MIC, clinical S. epidermidis strain; format: cell-based; conditions: Staphylococcus epidermidis, T5399848/19, quinolone-susceptible, 18 h of treatment
# [19] = tested on: S. epidermidis T 5501 851/19; test: MIC, clinical S. epidermidis strain; format: cell-based; conditions: Staphylococcus epidermidis, T5501851/19, read-out: MIC T 5501 851/19, quinolone-susceptible, 18 h of treatment
# [20] = tested on: M. tuberculosis H37Rv; test: MABA (microplate Alamar blue assay) MIC; format: cell-based; conditions: Mycobacterium tuberculosis, 336 h, read-out: MIC M. tuberculosis H37Rv
# [21] = tested on: M. tuberculosis Spec. 192 (Sensitive to Tuberculostatics); test: MABA (microplate Alamar blue assay) MIC; format: cell-based; conditions: Mycobacterium tuberculosis, 336 h, read-out: MIC M. tuberculosis Spec. 192 (Sensitive to Tuberculostatics)
# [22] = target: T1, S. aureus topoisomerase IV (Staphylococcus aureus, UniProt P0C1S7+P0C1U9); test: S. aureus topoisomerase IV decatenation assay; format: biochemical
# T1 construct: purchased Inspiralis
# T1 sequence (P0C1U9 whole entry): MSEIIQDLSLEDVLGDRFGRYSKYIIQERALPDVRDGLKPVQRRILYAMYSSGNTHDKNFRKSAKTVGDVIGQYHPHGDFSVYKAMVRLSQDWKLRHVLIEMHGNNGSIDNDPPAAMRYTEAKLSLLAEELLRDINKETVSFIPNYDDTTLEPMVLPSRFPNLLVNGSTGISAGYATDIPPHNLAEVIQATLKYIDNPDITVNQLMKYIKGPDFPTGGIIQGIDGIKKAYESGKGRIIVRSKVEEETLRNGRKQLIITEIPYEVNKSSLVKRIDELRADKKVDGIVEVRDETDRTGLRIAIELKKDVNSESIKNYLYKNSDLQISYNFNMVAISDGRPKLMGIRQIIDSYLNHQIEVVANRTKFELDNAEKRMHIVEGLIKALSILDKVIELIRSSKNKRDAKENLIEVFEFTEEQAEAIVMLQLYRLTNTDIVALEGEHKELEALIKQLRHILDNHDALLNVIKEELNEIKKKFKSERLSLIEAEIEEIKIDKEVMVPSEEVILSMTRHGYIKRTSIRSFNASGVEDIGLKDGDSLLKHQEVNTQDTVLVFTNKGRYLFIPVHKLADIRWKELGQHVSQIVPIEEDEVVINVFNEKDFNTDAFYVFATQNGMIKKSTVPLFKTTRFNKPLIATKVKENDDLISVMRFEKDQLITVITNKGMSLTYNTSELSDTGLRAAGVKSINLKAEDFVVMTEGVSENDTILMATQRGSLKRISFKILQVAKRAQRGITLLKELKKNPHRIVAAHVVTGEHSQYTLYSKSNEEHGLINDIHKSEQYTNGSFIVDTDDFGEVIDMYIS
# T1 sequence (P0C1S7 whole entry): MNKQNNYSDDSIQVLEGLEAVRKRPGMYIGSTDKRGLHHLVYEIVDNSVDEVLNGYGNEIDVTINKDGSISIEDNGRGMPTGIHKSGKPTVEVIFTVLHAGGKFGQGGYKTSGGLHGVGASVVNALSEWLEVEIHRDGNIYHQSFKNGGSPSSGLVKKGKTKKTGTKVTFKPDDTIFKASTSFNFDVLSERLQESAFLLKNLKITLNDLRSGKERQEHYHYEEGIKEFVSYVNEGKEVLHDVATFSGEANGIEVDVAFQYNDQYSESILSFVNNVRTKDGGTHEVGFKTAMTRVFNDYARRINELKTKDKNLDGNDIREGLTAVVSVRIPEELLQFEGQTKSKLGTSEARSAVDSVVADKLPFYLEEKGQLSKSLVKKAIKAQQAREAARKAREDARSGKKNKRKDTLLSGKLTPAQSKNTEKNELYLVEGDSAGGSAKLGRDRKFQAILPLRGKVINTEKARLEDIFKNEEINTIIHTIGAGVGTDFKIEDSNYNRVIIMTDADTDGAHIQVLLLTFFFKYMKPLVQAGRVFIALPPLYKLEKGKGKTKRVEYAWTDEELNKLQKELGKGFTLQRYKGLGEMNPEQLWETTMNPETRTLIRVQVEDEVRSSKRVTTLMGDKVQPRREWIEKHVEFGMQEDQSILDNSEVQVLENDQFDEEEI
# Description: The assay was performed using S. aureus topoisomerase IV […] kit (Inspiralis). Kinetoplast DNA (kDNA) was the substrate for topoisomerase IV.
# [23] = tested on: standard staphylococci (S. aureus, S. epidermidis); test: MIC, standard Gram-positive strains as a group; format: cell-based; conditions: Staphylococcus aureus; range over standard Gram-positive strains; read-out: MIC against standard staphylococci
# [24] = tested on: quinolone-susceptible clinical coagulase-negative staphylococci; test: MIC, quinolone-susceptible clinical isolates as a group; format: cell-based; conditions: Staphylococcus epidermidis, 18 h; five quinolone-susceptible isolates; read-out: MIC against quinolone-susceptible clinical isolates
# [25] = target: S. aureus DNA gyrase (Staphylococcus aureus, UniProt P0A0K8+P20831); test: biochemical
# Chain of S. aureus DNA gyrase (P20831 whole entry): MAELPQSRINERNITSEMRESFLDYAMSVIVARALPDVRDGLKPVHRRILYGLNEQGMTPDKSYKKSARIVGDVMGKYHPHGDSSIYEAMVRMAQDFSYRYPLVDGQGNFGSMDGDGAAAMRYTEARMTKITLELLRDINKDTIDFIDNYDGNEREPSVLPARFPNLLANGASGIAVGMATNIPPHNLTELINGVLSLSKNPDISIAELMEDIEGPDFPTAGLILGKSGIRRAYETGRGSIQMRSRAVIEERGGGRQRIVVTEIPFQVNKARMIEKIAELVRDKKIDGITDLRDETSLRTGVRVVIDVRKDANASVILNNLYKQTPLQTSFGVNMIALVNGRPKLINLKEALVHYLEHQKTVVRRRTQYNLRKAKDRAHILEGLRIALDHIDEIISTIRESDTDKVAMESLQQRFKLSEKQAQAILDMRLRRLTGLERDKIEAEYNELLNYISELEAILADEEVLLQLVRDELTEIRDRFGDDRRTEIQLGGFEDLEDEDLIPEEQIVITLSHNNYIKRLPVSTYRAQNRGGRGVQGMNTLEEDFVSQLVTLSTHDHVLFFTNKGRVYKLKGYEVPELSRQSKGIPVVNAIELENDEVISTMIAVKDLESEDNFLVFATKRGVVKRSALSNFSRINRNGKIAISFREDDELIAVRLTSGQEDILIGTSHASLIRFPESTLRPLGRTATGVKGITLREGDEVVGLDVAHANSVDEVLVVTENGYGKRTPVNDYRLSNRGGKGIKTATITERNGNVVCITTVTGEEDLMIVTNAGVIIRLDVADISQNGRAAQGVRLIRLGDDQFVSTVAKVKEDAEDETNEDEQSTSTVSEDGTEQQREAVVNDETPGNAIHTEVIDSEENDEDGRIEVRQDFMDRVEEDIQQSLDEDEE
# Chain of S. aureus DNA gyrase (P0A0K8 whole entry): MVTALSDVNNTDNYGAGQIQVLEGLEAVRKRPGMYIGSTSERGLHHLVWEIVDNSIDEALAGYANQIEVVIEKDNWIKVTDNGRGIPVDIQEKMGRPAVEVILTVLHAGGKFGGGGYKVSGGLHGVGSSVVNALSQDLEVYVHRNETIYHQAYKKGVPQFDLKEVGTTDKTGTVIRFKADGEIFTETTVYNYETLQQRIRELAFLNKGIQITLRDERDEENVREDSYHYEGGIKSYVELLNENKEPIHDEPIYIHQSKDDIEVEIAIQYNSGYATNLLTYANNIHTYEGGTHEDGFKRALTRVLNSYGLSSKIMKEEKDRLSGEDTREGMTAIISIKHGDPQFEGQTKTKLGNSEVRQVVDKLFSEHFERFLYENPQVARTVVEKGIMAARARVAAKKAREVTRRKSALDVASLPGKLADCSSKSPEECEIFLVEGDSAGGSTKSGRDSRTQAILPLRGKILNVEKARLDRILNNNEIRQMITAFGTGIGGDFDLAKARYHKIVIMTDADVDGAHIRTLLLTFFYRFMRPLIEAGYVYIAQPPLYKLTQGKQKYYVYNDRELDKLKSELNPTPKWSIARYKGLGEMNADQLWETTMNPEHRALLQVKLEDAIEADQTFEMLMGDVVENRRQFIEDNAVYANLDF
# Description: The assay was performed using S. aureus DNA Gyrase Supercoiling kit (Inspiralis). […] Samples were vortexed, centrifuged, and 20 µL of the aqueous phase of each sample was loaded onto a 1% agarose gel and left for 30 min prior to electrophoresis to allow diffusion of salt. Electrophoresis was conducted in TAE buffer for 3 h at 50 V. Gels were stained with ethidium bromide and visualized under UV light in a transilluminator (ChemiDoc MP, Bio Rad, Warsaw, Poland).
# [26] = tested on: M. tuberculosis strains; test: MABA MIC, mycobacterial strains as a group; format: cell-based; conditions: Mycobacterium tuberculosis, read-out: MIC antimycobacterial (strain not specified)
Structure (SMILES),IC50 [1],SI SW480 [1],"IC50 ([2]; Homo sapiens, SW-620, 72 h)",SI SW620 [2],"IC50 ([3]; Homo sapiens, PC-3, 72 h)",SI PC3 [3],IC50 [4],MIC [5],MIC [6],MIC [7],MIC [8],MIC [9],MIC [10],MIC [12],MIC [13],MIC [14],MIC [15],MIC [16],MIC [17],MIC [18],further results
"C/C=C/C=C/C(=O)N1CCCC2CN(c3c(F)cc4c(=O)c(C(=O)O)cn(C5CC5)c4c3OC)CC21 (stereo not shown) [Compound 2m, 1-Cyclopropyl-6-fluoro-7-{1-(2E,4E)-hexa-2,4-dienoyl-octahydro-pyrrolo[3,4-b]pyridin-6-yl}-8-methoxy-4-oxo-1,4-dihydro-quinoline-3-carboxylic acid]",6.3 ± 1.2 µM,15.7,< 5 µM,25.4,< 5 µM,36.7,99.1 ± 1.8 µM,1 µg/mL,1 µg/mL,1 µg/mL,1 µg/mL,2 µg/mL,1 µg/mL,> 512 µg/mL,32 µg/mL,1 µg/mL,1 µg/mL,1 µg/mL,32 µg/mL,0.5 µg/mL,"IC50 [2]: 3.9 ± 1.1 µM; IC50 [3]: 2.7 ± 1.1 µM; MIC ([11]; ATCC25922, 18 h of treatment): 64 µg/mL; MIC [19]: 2 µg/mL; MIC ([20]; 2 weeks of treatment): 32 µg/mL; MIC ([21]; 2 weeks of treatment): 32 µg/mL; IC50 [22]: > 129 µM; MIC [23]: 0.5 to 2 µg/mL; MIC [24]: 0.5 to 1 µg/mL; IC50 [25]: > 129 µM"
"COc1c(N2CC3CCCN(C(=O)/C=C(\C)CCC=C(C)C)C3C2)c(F)cc2c(=O)c(C(=O)O)cn(C3CC3)c12 (stereo not shown) [Compound 3m, 1-Cyclopropyl-7-{1-(2E)-(3,7-dimethyl-octa-2,6-dienoyl)-octahydro-pyrrolo[3,4-b]pyridin-6-yl}-6-fluoro-8-methoxy-4-oxo-1,4-dihydro-quinoline-3-carboxylic acid]",26.7 ± 1.4 µM,3.0,38.2 ± 4.1 µM,2.1,23.5 ± 4.7 µM,3.5,81.2 ± 2.6 µM,8 µg/mL,8 µg/mL,8 µg/mL,8 µg/mL,16 µg/mL,8 µg/mL,> 64 µg/mL,16 µg/mL,8 µg/mL,16 µg/mL,8 µg/mL,8 µg/mL,8 µg/mL,"MIC ([11]; ATCC25922, 18 h): 128 µg/mL; MIC [19]: 16 µg/mL; MIC [20]: 128 µg/mL; MIC [21]: 128 µg/mL; IC50 [22]: > 116 µM; MIC [23]: 8 to 32 µg/mL; MIC [26]: ≥ 128 µg/mL; IC50 [25]: > 116 µM"
